Assay results taken from patent publication US20040014812A1, “Remedies for keratoconjunctival diseases containing farnesyl acetate as the active ingredient” (SANTEN PHARMACEUTICAL CO. LTD, priority 2000, published 2004).

Tested on: lacrimal gland-nictitating membrane-harderian gland-enucleated rabbit dry eye models
Test: Rose bengal intake of cornea in rabbit dry eye models after instillation of ophthalmic solutions
Type: in vivo
Details: rabbit dry eye model
Description: An effect of farnesylacetic acid on dry eye was studied by using lacrimal gland-nictitating membrane-harderian gland-enucleated rabbit dry eye models.
Lacrimal gland-nictitating membrane-harderian gland-enucleated rabbit dry eye models were prepared by reference to the method of Girbard et al. (Invest. Ophthalmol. Vis. Sci., 28: 225-228 (1987)). Namely, a 7:1 mixture of a 5% ketamine hydrochloride injection and a 2% xylazine hydrochloride injection was injected into rabbits in an amount of 1 ml/kg to anesthetize the rabbits systemically. A 0.4% oxybuprocaine hydrochloride ophthalmic solution was instilled into the rabbits, lower lid skin was dissected in length of about 5 mm along an orbital bone, and then a lacrimal gland was enucleated from the outside of a conjunctival sac. The skin at the dissected site was sutured with 4-0 sutures, and an ofloxacin eye ointment was applied to the sutured site. Next, a harderian gland was enucleated while drawing it out with a nictitating membrane. Finally, the ofloxacin eye ointment was applied to the enucleated site.
Farnesylacetic acid ophthalmic solutions were prepared by diluting farnesylacetic acid with the following vehicle so that its concentrations were 0.75, 7.5 and 75 μM. A gefarnate ophthalmic solution was prepared by diluting gefarnate with the same vehicle so that its concentration was 7.5 mM. All the obtained ophthalmic solutions had pH of 7.4 and osmotic pressure of 1.0.
Each farnesylacetic acid ophthalmic solution (50 μl) was instilled into the lacrimal gland-nictitating membrane-harderian gland-enucleated rabbits six times per day for two weeks (four rabbits and eight eyes per group. The vehicle and gefarnate were instilled similarly as a control group and a comparative group respectively.
Effects on dry eye were evaluated by measuring rose bengal intake. A 7:1 mixture of a 5% ketamine hydrochloride injection and a 2% xylazine hydrochloride injection was injected into the rabbits in an amount of 1 ml/kg to anesthetize the rabbits systemically, then eyelids were opened with an eye speculum, and the conjunctival sacs were filled with physiological saline containing 1% rose bengal. The eyes were maintained for 10 seconds and then washed with physiological saline. A 5% pentobarbital injection was injected into the rabbits to euthanatize them, and eyeballs were enucleated. Corneal pieces were prepared with a trephine having an inner diameter of 8 mm, put into 1 ml of 2 M sodium hydroxide and allowed to stand under light resistance for one day to dissolve corneal tissues completely. Absorbance at a wavelength of 560 nm of the obtained tissue-dissolved solutions was measured with a spectrophotometer.
Rose bengal stains a portion containing no mucin layer in keratoconjunctiva. […] Accordingly, when the mucin layer decreases because of dry eye, rose bengal intake of the corneal tissues increases, and the absorbance of the tissue-dissolved solution increases.

CC(C)=CCC/C(C)=C/CC/C(C)=C/CCC(=O)O [Farnesylacetic acid, farnesylacetic acid]
Effect compared with gefarnate (7.5 mM administration group) (75 μM administration group, about 1/100 of the gefarnate concentration): an effect equal to that of gefarnate | Rose bengal intake compared with vehicle administration group (0.75, 7.5 and 75 μM administration groups): apparently less than that in the vehicle administration group | Absorbance (560 nm) of corneal tissue-dissolved solution (rose bengal intake) (ophthalmic solution 0.75 μM, 50 μl instilled six times per day for two weeks): 0.169 | Absorbance (560 nm) of corneal tissue-dissolved solution (rose bengal intake) (ophthalmic solution 7.5 μM, 50 μl instilled six times per day for two weeks): 0.139 | Absorbance (560 nm) of corneal tissue-dissolved solution (rose bengal intake) (ophthalmic solution 75 μM, 50 μl instilled six times per day for two weeks): 0.093

CC(C)=CCC/C(C)=C/CC/C(C)=C/CCC(=O)OC/C=C(\C)CCC=C(C)C [gefarnate, reference compound]
Absorbance (560 nm) of corneal tissue-dissolved solution (rose bengal intake) (ophthalmic solution 7.5 mM, instilled six times per day for two weeks): 0.075
